The assay deals with CHOP reporter cell assay, percent of control. Kind of assay: CHOP reporter inhibitor potency, dose response, cell-based (AID 504322).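 Also: CHO cells carrying a CHOP reporter stimulated with tunicamycin to induce ER stress; potency is for inhibition of the stress-induced reporter signal.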

As a reminder, the IC50 is the concentration needed to halve the response being measured.

Activity calls are given as the source filed them. No rule for the calls is given here. Bounds are passed on as bounds.

In the case of `CC1C/C(=C/c2ccccn2)C(=O)/C(=C/c2ccccn2)C1` (stereo not given), the half-inhibitory concentration (IC50) is 2.49 µM. To `CCCCC(CC)Cn1c(N)c(C#N)c2nc3ccccc3nc21` (stereo not given) belongs 3.98 µM; to `CS(=O)(=O)c1nc(-c2cccs2)cc(C(F)(F)F)n1`, less than 0.16 µM; to `CC1(c2ccccc2)CC(C)(C)N2C(=O)/C(=C3\SC(=S)NC3=O)c3cccc1c32` (stereo not given), 6.98 µM (inactive). To `Cc1cc(-c2[nH]nc3c2C(c2ccc(Cl)cc2)C(C#N)=C(N)O3)c(C)s1` (stereo not given) belongs 7.25 µM (inactive). To `Nc1cccc(Nc2nc(OC(C(F)(F)F)C(F)(F)F)nc(OC(C(F)(F)F)C(F)(F)F)n2)c1` belongs 3.09 µM (inactive); to `OC(COCC(F)(F)C(F)(F)C(F)(F)C(F)F)Cn1c2ccccc2c2ccccc21` (stereo not given), 2.39 µM; to `O=C(OCn1ncc(Cl)c(Cl)c1=O)c1ccc(C(F)(F)F)cc1`, 9.59 µM (inactive). Take `CCCCCCCCCCCCCCCC[n+]1ccc(/C=N/O)cc1`: the IC50 is 3.1 µM. To `CN(C(=O)CCl)C1CCCc2ccccc21` (stereo not given) belongs > 10 µM (inactive); to `CC(C)C[C@H](NC(=O)c1nc[nH]c1C(=O)NCC(=O)OC(C)(C)C)C(=O)OCc1ccccc1`, > 10 µM (inactive). Consider `CN1CCN(c2ccc(-c3ccc4ccccc4n3)cc2)CC1`, for which the IC50 is < 0.16 µM (inactive). For the molecule `COc1ccc2c(C)nc(Nc3nc(C)c(C)c(=O)[nH]3)nc2c1`, the IC50 was 9.72 µM (inactive). To `NC(=O)c1ccc(C(F)(F)F)n(Cc2c(Cl)cccc2Cl)c1=O` belongs 9.4 µM (inactive). To `FC(F)(F)c1ccc(/C=N/NC(=S)NC2CCCCC2)cc1` belongs 5.03 µM.

For `Cc1cccc(/C=C/C(=O)c2cc(Br)ccc(=O)c2O)c1`, the IC50 is 8.57 µM (inactive). To `O=[N+]([O-])c1ccc(NC(=S)NCCc2ccc(Cl)cc2)cc1` belongs > 10 µM (inactive). Turning to `CN1CCc2c(sc(NC(=O)c3cc4cc([N+](=O)[O-])ccc4s3)c2C(N)=O)C1`, the IC50 is 4.6 µM.

For the molecule `CC(C)(C)c1ccc(C(=O)NNC(=O)c2cccc(Br)c2)cc1`, the IC50 is > 10 µM (inactive). As to `CC(C)NC(=O)c1ccccc1NC(=O)/C=C/c1cccc([N+](=O)[O-])c1`, the IC50 was 5.83 µM (inactive).

As for `CC(C)(C)c1ccc(Oc2ccc(N)cc2)cc1`, the IC50 is < 0.16 µM (inactive). To `CC(=O)OCC1O[C@@H](O[C@@H]2C[C@H]3C(C)(C)[C@H](OC(C)=O)CC[C@]3(C)[C@H]3CC[C@]45C[C@]4(CC[C@H]5[C@@H](C)C[C@@H](O)[C@H](O)C(C)(C)O)[C@@]32C)[C@H](O)[C@@H](O)[C@@H]1O` (stereo not given in full) belongs 5.96 µM (inactive); to `CCCCCCn1c(-c2ccco2)nc2oc3cc(OC)ccc3c(=O)c2c1=O`, 9.42 µM (inactive). To `CCOC(=O)c1c(NC(=O)Cc2cccs2)sc(C(=O)NC2CCCCC2)c1C` belongs 2.99 µM; to `Cc1ccc(C)c(NC(=S)NC(NC(=O)/C=C/c2ccccc2)C(Cl)(Cl)Cl)c1` (stereo not given), 9.63 µM (inactive); to `Cc1ccc(/C=N/n2c(C3CCCCC3)n[nH]c2=S)s1`, 5.3 µM (inactive). To `OC(CNCCc1ccc(C(F)(F)F)cc1)COc1ccc2ccccc2c1` (stereo not given) belongs 9.41 µM (inactive); to `CC(C)(C)OC(=O)CNC(=O)c1[nH]cnc1C(=O)Nc1ccc(Cl)cc1`, 4.69 µM (inactive); to `CCCc1nc2oc(C(=O)c3ccccc3)c(N)c2c2c1COC(C)(C)C2`, > 10 µM (inactive). For the molecule `CC1(c2ccc(OC(F)F)cc2)NC(=O)N(/N=C/c2c(O)ccc3ccccc23)C1=O` (stereo not given), the IC50 was 8.25 µM (inactive).

Regarding `Cc1ccc(-n2ncc(Br)c(Br)c2=O)cc1`, the 50% inhibitory concentration (IC50) was 4.78 µM.

Turning to `Cc1ccc(NC2=C/C(=N\S(=O)(=O)c3cccs3)c3ccccc3C2=O)c(C)c1`, the half-maximal inhibitory concentration (IC50) is 4.52 µM. To `COc1cc(/C=C2\COC/C(=C\c3cc(OC)c(OC)c(OC)c3)C2=O)cc(OC)c1OC` belongs 3.46 µM; to `O=C1c2ccc3c4c(ccc(c24)C(=O)N1c1cccc(O)c1)C(=O)N(c1cccc(O)c1)C3=O`, 9.81 µM (inactive). To `Cn1c(=O)[nH]c(=O)c2[nH]c(N(Cc3ccccc3)Cc3ccccc3)nc21` belongs 6.18 µM (inactive). Turning to `CCCCCCCCCCCCCCCCn1cc[n+](C)c1`, the IC50 is 0.86 µM (inactive). To `COc1ccc(-c2nn(-c3ccccc3)cc2/C=N/NC(=O)c2ccc(Br)o2)cc1` belongs 9.29 µM (inactive); to `COc1ccc(NS(=O)(=O)c2ccc(O)c(NC(=O)c3cc4c(C)nn(-c5ccc(F)cc5)c4s3)c2)cc1`, 6.99 µM (inactive); to `CNC(=O)c1nnsc1S(=O)(=O)c1ccc(Cl)cc1`, 4.03 µM. Regarding `O=C(Cc1ccccc1)NC(=S)Nc1cccc(C(F)(F)F)c1`, the IC50 is 3.61 µM (inactive). To `COC(=O)c1ccccc1NC1=C/C(=N\S(=O)(=O)c2cccs2)c2ccccc2C1=O` belongs > 10 µM (inactive); to `Cc1nc(SCC(=O)Nc2ccc(F)cc2)c(C#N)c(C)c1CC(=O)c1ccc(Br)cc1`, > 10 µM (inactive). To `COc1cccc(NC(=O)CSc2nnc(-c3cc(C)n(-c4ccccc4)c3C)o2)c1` belongs 1.76 µM (inactive); to `CCOC(=O)CN1C(c2ccc(O)cc2)Nc2ccc(Br)cc2C1c1ccccc1` (stereo not given), 9.53 µM (inactive); to `CC1CCC(C(C)C)C(OC(=O)COC(=O)c2cc(O)ccc2N)C1` (stereo not given), 4.09 µM (inactive). Regarding `Cc1ccc(NC(=O)C(=O)NCC2OCCc3ccccc32)cc1` (stereo not given), the IC50 is 8.99 µM (inactive).

For `COc1cc(C)nc(N2CCCC(C(=O)Nc3cccc(Cl)c3C)C2)n1` (stereo not given), the IC50 was 6.3 µM (inactive). To `NC(=O)c1cc(-c2ccccc2)nc(N2CCCCCC2)n1` belongs 9.62 µM (inactive). To `COc1ccccc1C(=O)Oc1ccc(C(C)C)cc1` belongs > 10 µM (inactive); to `OC(CNCC1CCCO1)Cn1c2ccc(Br)cc2c2cc(Br)ccc21` (stereo not given), 8.2 µM (inactive).

`CNc1nc(Sc2cccc(C(F)(F)F)c2)cc(C(F)(F)F)n1`: the IC50 was > 10 µM (inactive). To `O=S1(=O)C=C(Sc2nnc(-c3ccccc3)o2)c2ccccc21` belongs 4.34 µM; to `CCCCn1c(/N=C/c2c[nH]c3ccccc23)nc2ccccc21`, 6.06 µM (inactive). To `CC(C)(C)c1ccc(S(=O)(=O)NCC(=O)Nc2sc3c(c2C(N)=O)CCCC3)cc1` belongs 9.83 µM (inactive). To `C=C(C)COc1ccc(-c2n[nH]c(C)c2-c2ccccc2OC)c(O)c1` belongs > 10 µM (inactive); to `C/C=C(\C)C(=O)OC1C(C)=C2C(C1OC(=O)CCCCC)C(C)(OC(C)=O)CC(OC(=O)CCC)C1(O)C2OC(=O)C1(C)O` (stereo not given), less than 0.16 µM. Turning to `CCOC(=O)c1c2ccc(OCC(=O)N/N=C/c3ccc(C)cc3)cc2n2ccccc12`, the IC50 is 9.52 µM (inactive). To `Cc1cccc(NS(=O)(=O)c2ccc(C3CCCCC3)cc2)c1` belongs 6.93 µM (inactive). Take `Nc1ccc(SC(F)(F)F)cc1C(=O)c1ccccc1`: the IC50 was 4.97 µM. To `O=C(COC(=O)Cc1c(Cl)cccc1Cl)Nc1ccc(OC(F)(F)F)cc1` belongs > 10 µM (inactive). To `O=C1C(C2=NC(c3ccccn3)C3C(=O)N(c4ccc(OC(F)(F)F)cc4)C(=O)C23)=C(O)c2ccccc21` (stereo not given) belongs 4.57 µM. To `Cc1ccc(CNCC(O)(c2ccccc2)c2ccc(Cl)cc2)cc1` (stereo not given) belongs 9.63 µM (inactive); to `CC(C)(C)c1ccc(-c2n[nH]c(=S)n2C2CCCC2)cc1`, 7.55 µM (inactive). Take `O=C(CCl)N(c1ccc(Cl)cc1)c1c[nH]c2ccccc12`: the IC50 was 9.58 µM (inactive). To `COc1ccccc1NCC(O)COc1ccc(C(C)(C)C)cc1` (stereo not given) belongs 9.32 µM (inactive). To `CCC(C)Sc1nc2c(c(=O)[nH]c(=O)n2C)n1Cc1ccc(Cl)cc1` (stereo not given) belongs > 10 µM (inactive). To `CC(C)CCn1c(=O)c(C(=O)N/N=C/c2cccc(F)c2)c(O)c2ccccc21` belongs 2.97 µM. Consider `CCOc1cc(/C=C\[N+](=O)[O-])ccc1OCC(=O)Nc1ccccc1C`, for which the IC50 was 4.96 µM (inactive). To `CC(=O)Nc1ccc(NC2=Nc3ccccc3N3C2=Nc2c(c(C)nn2-c2ccccc2)C3c2ccccc2)cc1` (stereo not given) belongs 4.24 µM; to `Cc1nc(Nc2ccc(F)cc2)[nH]c(=O)c1CCC(C)C`, 2.43 µM. Turning to `COC(=O)c1c(NC(=O)Nc2ccc(Cl)cc2)sc(C)c1C`, the IC50 is 9.33 µM (inactive). To `CCc1ccc(OCC(=O)NC(NC(=S)Nc2ccccc2)C(Cl)(Cl)Cl)cc1` (stereo not given) belongs 8.12 µM (inactive); to `CC(/C=C1\SC(=O)N(CCCC(=O)O)C1=O)=C\c1ccccc1`, less than 0.16 µM. To `O=C(OCn1ncc(Br)c(Br)c1=O)c1c(F)cccc1F` belongs 0.76 µM; to `CC(NC(=O)/C(C#N)=C/c1ccc(Cl)c([N+](=O)[O-])c1)c1ccccc1` (stereo not given), 9.98 µM (inactive). To `CN(CCCC[C@H](CNCc1ccc(-c2ccccc2)cc1)N1C[C@H](c2ccccc2)N(CCc2ccc(Cl)c(Cl)c2)C(=O)C1=O)Cc1ccc(-c2ccccc2)cc1` belongs 9.37 µM (inactive); to `CCCN1C=CC(=C2C(=O)c3ccccc3C2=O)C=C1`, 1.78 µM (inactive). For `CC1=CC(=O)C=C(C)C1=NOS(=O)(=O)c1ccccc1`, the IC50 is 5.48 µM (inactive). Consider `CCSCCc1nnc(NC(=O)Nc2cccc(C(F)(F)F)c2)s1`, for which the IC50 is 6.82 µM (inactive). To `Cc1ccccc1Oc1cc(-n2ncc(Cl)c(Cl)c2=O)ncn1` belongs 2.08 µM; to `Cc1ccc(/C=N/N2C(=S)SC(C)(C)C2N(O)C(=O)Nc2ccc([N+](=O)[O-])cc2)cc1` (stereo not given), 2.67 µM (inactive); to `O=C(Nc1ccc(OC(F)F)cc1)Nc1cccc(C(F)(F)F)c1`, 8.9 µM (inactive). To `CCCOc1ccc(N2C(=O)CC(SC(=NCC)Nc3cccc(F)c3)C2=O)cc1` (stereo not given) belongs 8.9 µM (inactive); to `CC1CCc2c(sc3ncn(CC(=O)N=Nc4c(O)[nH]c5ccccc45)c(=O)c23)C1` (stereo not given), 7.42 µM (inactive); to `COc1ccc(C(=O)/C=C/C(=O)N(CC(=O)NC2CCCCC2)Cc2cccs2)c(O)c1`, 9.94 µM (inactive).

The values are drawn from PubChem BioAssay AID504322 (Emory University Molecular Libraries Screening Center, 2011).
